{"source": "paper PMC12408343", "about": "“Deep learning reveals antibiotics in the archaeal proteome” (Nature Microbiology, 2025)", "key": {"[1]": {"system": "E. coli AIC222 (colistin-resistant, CRE)", "assay": "microbe, parasite or virus in culture", "settings": "24 h; for MIC E. coli AIC222 – CRE (−): colistin-resistant strain, broth microdilution, LB, 1–64 μmol l^−1 two-fold dilutions, 37 °C, OD600, mode of three independent replicates", "experimental": "(§1) Briefly, 10^5 bacterial cells were incubated with serially diluted EPs (0–64 μmol l^−1) at 37 °C. Bacterial growth was assessed by measuring the optical density at 600 nm in a microplate reader at 1 day post-treatment. […] Secondary structure fractions were calculated using the BeStSel server. fH and fβ stand for helical and β fractions, respectively."}, "[2]": {"system": "S. aureus ATCC BAA-1556 (MRSA)", "assay": "microbe, parasite or virus in culture", "settings": "24 h", "experimental": "as §1"}, "A. baumannii ATCC 19606 [3]": {"system": "A. baumannii ATCC 19606", "assay": "Neutropenic deep thigh infection mouse model", "assay_type": "in vivo", "settings": "neutropenic female CD-1 mice, n = 6, single intraperitoneal dose 2 h after infection", "experimental": "The limit of detection (LOD) for the CFU quantification is log10CFU = 2. Statistical significance in panels b and d was determined using one-way analysis of variance followed by Dunnett’s test; P values are shown in the graphs. In the violin, the centre line represents […], the box limits the 1st and 3rd quartiles, and the whiskers (minimum and maximum) represent 1.5× the interquartile range. The solid line inside each box represents […] value obtained for each group. Panels a and c created with BioRender.com. Source data\nNext, we assessed the efficacy of the same lead archaeasins (archaeasin-2, archaeasin-17 and archaeasin-73) in a murine deep thigh infection model (Fig. 5c), which is widely used to assess the antibiotic potential of compounds. Mice were administered 2 rounds of cyclophosphamide treatment for immunosuppression before the intramuscular infection with 1 × 10^5 cells in 100 μl of A. baumannii. A single dose of each archaeasin (at their MIC) was delivered intraperitoneally (Fig. 5c). […] Four days post-treatment, the bacterial counts remained stable for all peptide treatment conditions and the treatments with polymyxin B and levofloxacin, while the untreated control increased by two orders of magnitude. […]"}, "P. aeruginosa PAO1": {"system": "P. aeruginosa PAO1", "assay": "microbe, parasite or virus in culture", "settings": "for MIC P. aeruginosa PAO1 (−): broth microdilution, LB, 1–64 μmol l^−1 two-fold dilutions, 24 h, 37 °C, OD600, mode of three independent replicates", "experimental": "as §1"}, "P. aeruginosa PA14": {"system": "P. aeruginosa PA14", "assay": "microbe, parasite or virus in culture", "settings": "for MIC P. aeruginosa PA14 (−): broth microdilution, LB, 1–64 μmol l^−1 two-fold dilutions, 24 h, 37 °C, OD600, mode of three independent replicates", "experimental": "as §1"}, "E. coli ATCC 11775": {"system": "E. coli ATCC 11775", "assay": "microbe, parasite or virus in culture", "settings": "for MIC E. coli ATCC 11775 (−): broth microdilution, LB, 1–64 μmol l^−1 two-fold dilutions, 24 h, 37 °C, OD600, mode of three independent replicates", "experimental": "as §1"}, "[4]": {"system": "E. faecalis ATCC 700802 (VRE)", "assay": "Broth microdilution MIC", "assay_type": "cell-based, Enterococcus faecalis", "settings": "vancomycin-resistant strain, LB, 1–64 μmol l^−1 two-fold dilutions, 24 h, 37 °C, OD600, mode of three independent replicates", "experimental": "as §1"}, "E. coli AIC221": {"system": "E. coli AIC221", "assay": "microbe, parasite or virus in culture", "settings": "for MIC E. coli AIC221 (−): broth microdilution, LB, 1–64 μmol l^−1 two-fold dilutions, 24 h, 37 °C, OD600, mode of three independent replicates", "experimental": "as §1"}, "[5]": {"system": "E. faecium ATCC 700221 (VRE)", "assay": "microbe, parasite or virus in culture", "settings": "24 h", "experimental": "as §1"}, "S. aureus ATCC 12600": {"system": "S. aureus ATCC 12600", "assay": "microbe, parasite or virus in culture", "experimental": "as §1"}, "K. pneumoniae ATCC 13883": {"system": "K. pneumoniae ATCC 13883", "assay": "microbe, parasite or virus in culture", "settings": "for MIC K. pneumoniae ATCC 13883 (−): broth microdilution, LB, 1–64 μmol l^−1 two-fold dilutions, 24 h, 37 °C, OD600, mode of three independent replicates", "experimental": "as §1"}, "A. baumannii ATCC 19606 [6]": {"system": "A. baumannii ATCC 19606", "assay": "microbe, parasite or virus in culture", "settings": "for MIC A. baumannii ATCC 19606 (−): broth microdilution, LB, 1–64 μmol l^−1 two-fold dilutions, 24 h, 37 °C, OD600, mode of three independent replicates", "experimental": "as §1"}}, "note": "Bridge positions count the residues as written; N and C are the ends. Square brackets hold non-standard residues; d marks the D form. Peptide text beside a SMILES is read from it. * marks the point of attachment. X1 = CC[C@H](C)CCCCC(=O)*; Dab = NCC[C@H](N)C(=O)O", "data": [{"smiles": "C[C@H]1COc2c(N3CCN(C)CC3)c(F)cc3c(=O)c(C(=O)O)cn1c23", "note": "[Levofloxacin, reference compound]", "values": [{"measurement": "MIC", "setting": "[1]; Escherichia coli, read-out: MIC E. coli AIC222 – CRE (−)", "result": 0.25, "unit": "µM"}, {"measurement": "MIC E. coli AIC222 – CRE (−)", "setting": "[1]", "result": 0.25, "unit": "µM"}, {"measurement": "MIC", "setting": "[2]; Staphylococcus aureus, ATCCBAA1556|MRSA, read-out: MIC S. aureus ATCC BAA-1556 – MRSA (+)", "result": 32, "unit": "µM"}, {"measurement": "MIC S. aureus ATCC BAA-1556 – MRSA (+)", "setting": "[2]; methicillin-resistant strain, broth microdilution, LB, 1–64 μmol l^−1 two-fold dilutions, 37 °C, OD600, mode of three independent replicates", "result": 32, "unit": "µM"}, {"measurement": "reduction of bacterial load, deep thigh infection, four days post-treatment", "setting": "A. baumannii ATCC 19606 [3]", "result": "three"}, {"measurement": "MIC", "setting": "P. aeruginosa PAO1; Pseudomonas aeruginosa, PAO1, 24 h, read-out: MIC P. aeruginosa PAO1 (−)", "result": 4, "unit": "µM"}, {"measurement": "MIC P. aeruginosa PAO1 (−)", "setting": "P. aeruginosa PAO1", "result": 4, "unit": "µM"}, {"measurement": "MIC", "setting": "P. aeruginosa PA14; Pseudomonas aeruginosa, PA14, 24 h, read-out: MIC P. aeruginosa PA14 (−)", "result": 0.5, "unit": "µM"}, {"measurement": "MIC P. aeruginosa PA14 (−)", "setting": "P. aeruginosa PA14", "result": 0.5, "unit": "µM"}, {"measurement": "MIC", "setting": "E. coli ATCC 11775; Escherichia coli, ATCC11775, 24 h, read-out: MIC E. coli ATCC 11775 (−)", "result": 0.125, "unit": "µM"}, {"measurement": "MIC E. coli ATCC 11775 (−)", "setting": "E. coli ATCC 11775", "result": 0.125, "unit": "µM"}, {"measurement": "MIC", "setting": "[4]; Enterococcus faecalis", "result": 2, "unit": "µM"}, {"measurement": "MIC E. faecalis ATCC 700802 – VRE (+)", "setting": "[4]", "result": 2, "unit": "µM"}, {"measurement": "MIC", "setting": "E. coli AIC221; Escherichia coli, AIC221, 24 h, read-out: MIC E. coli AIC221 (−)", "result": 0.125, "unit": "µM"}, {"measurement": "MIC E. coli AIC221 (−)", "setting": "E. coli AIC221", "result": 0.125, "unit": "µM"}, {"measurement": "MIC", "setting": "[5]; Enterococcus faecium, ATCC700221|VRE, read-out: MIC E. faecium ATCC 700221 – VRE (+)", "result": 16, "unit": "µM"}, {"measurement": "MIC E. faecium ATCC 700221 – VRE (+)", "setting": "[5]; vancomycin-resistant strain, broth microdilution, LB, 1–64 μmol l^−1 two-fold dilutions, 37 °C, OD600, mode of three independent replicates", "result": 16, "unit": "µM"}, {"measurement": "MIC", "setting": "S. aureus ATCC 12600; Staphylococcus aureus, ATCC12600, 24 h, read-out: MIC S. aureus ATCC 12600 (+)", "result": 2, "unit": "µM"}, {"measurement": "MIC S. aureus ATCC 12600 (+)", "setting": "S. aureus ATCC 12600; broth microdilution, LB, 1–64 μmol l^−1 two-fold dilutions, 24 h, 37 °C, OD600, mode of three independent replicates", "result": 2, "unit": "µM"}, {"measurement": "MIC", "setting": "K. pneumoniae ATCC 13883; Klebsiella pneumoniae, ATCC13883, 24 h, read-out: MIC K. pneumoniae ATCC 13883 (−)", "result": 1, "unit": "µM"}, {"measurement": "MIC K. pneumoniae ATCC 13883 (−)", "setting": "K. pneumoniae ATCC 13883", "result": 1, "unit": "µM"}, {"measurement": "MIC", "setting": "A. baumannii ATCC 19606 [6]; Acinetobacter baumannii, ATCC19606, 24 h, read-out: MIC A. baumannii ATCC 19606 (−)", "result": 1, "unit": "µM"}, {"measurement": "MIC A. baumannii ATCC 19606 (−)", "setting": "A. baumannii ATCC 19606 [6]", "result": 1, "unit": "µM"}]}, {"smiles": "CC[C@H](C)CCCCC(=O)N[C@@H](CCN)C(=O)N[C@H](C(=O)N[C@@H](CCN)C(=O)N[C@H]1CCNC(=O)[C@H]([C@@H](C)O)NC(=O)[C@H](CCN)NC(=O)[C@H](CCN)NC(=O)[C@H](CC(C)C)NC(=O)[C@@H](Cc2ccccc2)NC(=O)[C@H](CCN)NC1=O)[C@@H](C)O", "note": "[Polymyxin B, reference compound] (X1-[Dab]T[Dab][Dab][Dab][dF]L[Dab][Dab]T; lactam 4-C (inferred); N-terminus assumed)", "values": [{"measurement": "MIC E. coli AIC222 – CRE (−)", "setting": "[1]", "result": 8, "unit": "µM"}, {"measurement": "reduction of bacterial load, deep thigh infection, four days post-treatment", "setting": "A. baumannii ATCC 19606 [3]", "result": "three"}, {"measurement": "MIC P. aeruginosa PAO1 (−)", "setting": "P. aeruginosa PAO1", "result": 4, "unit": "µM"}, {"measurement": "MIC P. aeruginosa PA14 (−)", "setting": "P. aeruginosa PA14", "result": 8, "unit": "µM"}, {"measurement": "MIC E. coli ATCC 11775 (−)", "setting": "E. coli ATCC 11775", "result": 0.25, "unit": "µM"}, {"measurement": "MIC E. coli AIC221 (−)", "setting": "E. coli AIC221", "result": 0.25, "unit": "µM"}, {"measurement": "MIC K. pneumoniae ATCC 13883 (−)", "setting": "K. pneumoniae ATCC 13883", "result": 8, "unit": "µM"}, {"measurement": "MIC A. baumannii ATCC 19606 (−)", "setting": "A. baumannii ATCC 19606 [6]", "result": 0.5, "unit": "µM"}]}]}
